Values quoted from earlier work, collected in patent publication US20120028902A1, “PEPTIDE AVAILABILITY” (priority 2008, published 2012).

SMILES: CC[C@H](C)[C@H](N)C(=O)N1CCC[C@H]1C(=O)N1CCC[C@H]1C(=O)O [IPP, isoleucine-proline-proline]
- Further increase of plasma IPP AUC when consumed with the meal (yoghurt drink consumed with breakfast, versus fasted state): 30%
- Increase of plasma IPP level (area under the concentration vs. time curve) compared to a control drink (yoghurt drink drunk in overnight fasted state 30 min prior to breakfast): more than two-fold
